Assay: xn = mol fraction of the nth substance listed
Details: 101 kPa, Liquid; for viscosity: Concentric cylinders viscometry; for mass density: Vibrating tube method

COC(C)(C)C [2-methoxy-2-methylpropane] + CCCCO
Details	mass density, 293.15 K [kg/m3]	mass density, 298.15 K [kg/m3]	mass density, 303.15 K [kg/m3]	mass density, 308.15 K [kg/m3]	viscosity, 293.15 K [mPa·s]	viscosity, 298.15 K [mPa·s]	viscosity, 303.15 K [mPa·s]	viscosity, 308.15 K [mPa·s]
x1 = 0.0104	809.06	805.25	801.38	797.5	2.875	2.518	2.22	1.958
x1 = 0.0243	808.13	804.31	800.43	796.52	2.741	2.41	2.126	1.882
x1 = 0.0294	807.77	803.94	800.06	796.14	2.696	2.374	2.094	1.855
x1 = 0.0396	807.09	803.24	799.35	795.41	2.618	2.298	2.032	1.8
x1 = 0.0498	806.41	802.54	798.63	794.68	2.522	2.227	1.973	1.75
x1 = 0.0601	805.74	801.84	797.91	793.95	2.439	2.156	1.908	1.697
x1 = 0.0699	805.07	801.16	797.21	793.24	2.366	2.093	1.857	1.654
x1 = 0.0804	804.38	800.44	796.49	792.5	2.296	2.028	1.809	1.612
x1 = 0.0898	803.72	799.79	795.81	791.81	2.224	1.969	1.752	1.564
x1 = 0.1006	802.95	798.99	795	790.98	2.144	1.903	1.695	1.514
x1 = 0.1507	799.54	795.53	791.47	787.38	1.85	1.656	1.489	1.334
x1 = 0.1993	796.26	792.17	788.04	783.88	1.6	1.437	1.294	1.169
x1 = 0.2516	792.7	788.55	784.35	780.11	1.382	1.25	1.132	1.029
x1 = 0.3022	789.27	785.01	780.75	776.43	1.216	1.103	0.9992	0.9132
x1 = 0.3515	785.87	781.6	777.25	772.86	1.077	0.9815	0.893	0.8189
x1 = 0.4031	782.33	777.98	773.56	769.1	0.9523	0.8743	0.797	0.7323
x1 = 0.4497	779.15	774.73	770.24	765.7	0.8598	0.7902	0.7267	0.6743
x1 = 0.4999	775.69	771.23	766.66	762.05	0.7724	0.7125	0.6568	0.6081
x1 = 0.5485	772.39	767.84	763.2	758.52	0.6999	0.6476	0.5981	0.5512
x1 = 0.5953	769.2	764.57	759.86	755.11	0.6397	0.5937	0.5512	0.5073
x1 = 0.6445	765.82	761.14	756.35	751.52	0.585	0.5452	0.506	0.4692
x1 = 0.6999	762	757.24	752.37	747.46	0.53	0.4937	0.4595	0.4236
x1 = 0.7466	758.77	753.92	748.98	744	0.4912	0.4586	0.4275	0.395
x1 = 0.8067	754.66	749.65	744.63	739.55	0.4474	0.4167	0.3876	0.3578
x1 = 0.8404	752.26	747.22	742.14	737.01	0.4251	0.3961	0.3679	0.3465
x1 = 0.8695	750.22	745.15	740.03	734.85	0.408	0.3799	0.3544	0.3327
x1 = 0.8983	748.09	743	737.86	732.64	0.3889	0.3651	0.3371	0.3165
x1 = 0.9092	747.32	742.21	737.05	731.8	0.3832	0.3591	0.3333	0.3137
x1 = 0.9188	746.62	741.51	736.33	731.09	0.3778	0.3547	0.3301	0.3112
x1 = 0.9299	745.83	740.69	735.5	730.24	0.3717	0.3493	0.3249	0.305
x1 = 0.9398	745.11	739.96	734.74	729.47	0.3683	0.3491	0.329	0.3048
x1 = 0.9492	744.42	739.25	734.03	728.76	0.3654	0.3479	0.3225	0.3006
x1 = 0.9607	743.59	738.39	733.15	727.86	0.358	0.3391	0.3169	0.2958
x1 = 0.9697	742.97	737.75	732.49	727.18	0.356	0.331	0.3107	0.2998
x1 = 0.9796	742.24	737.01	731.74	726.41	0.3489	0.3267	0.3076	0.2964
x1 = 0.9902	741.47	736.22	730.94	725.59	0.3456	0.3214	0.2976	0.2892
